According to patent publication US20210047693A1, “METHODS OF TREATING EXTRACHROMOSOMAL DNA EXPRESSING CANCERS” (THE REGENTS OF THE UNIVERSITY OF CALIFORNIA, priority 2017, published 2021):

Tests used:
Type in all cases: cell-based
[1] = system: isogenic paired COLO320 cells; assay: 3D soft agar assay; conditions: COLO320 isogenic pair (colon cancer cell line)
Excerpt: (§1) FIGS. 13A-13B. […] FIG. 13A) 3D soft agar assay in isogenic paired GBM39 cells treated with Olaparib or Rucaparib. Quantification of colonies as measured by ColonyArea software (bottom). FIG. 13B) 3D soft agar assay in isogenic paired COLO320 cells (a colon cancer cell line) treated with Olaparib or Rucaparib. Quantification of colonies as measured by ColonyArea software (bottom).

[2] = system: isogenic paired GBM39 cells; assay: 3D soft agar assay; conditions: GBM39 isogenic pair
Excerpt: as §1

PC3 cells = assay: 2D colony formation assay with crystal violet staining; conditions: PC3 cells compared with immortalized HEK293 cells
Experimental: FIGS. 12A-12C. […] FIG. 12A) Acute cell toxicity following 4 days treatment with 10 μM of indicated PARPi. Cell death measured by FACS analysis of Sytox Red staining in 2 normal cell types (astrocytes and HEK293), PC3 ecDNA-containing cells, and the paired GBM39 cells. FIG. 12B) 2D colony formation assay and crystal violet staining in immortalized HEK293 cells and PC3 cells after treatment with Olaparib or Rucaparib. FIG. 12C) Colony number quantification by Colony Area software plug-in for ImageJ from data in (FIG. 12B).

GBM cells [3] = assay: Glucose levels in cells
ecDNA = assay: Replication stress on ecDNA versus chromosomal DNA; conditions: vehicle versus erlotinib; ecDNA vs chromosomal DNA
GBM cells [4] = assay: Loss of EGFR-containing ecDNA / EGFR oncogene DNA (number of ecDNAs per metaphase)
GBM39 cells = assay: Exosomal export of oncogenes amplified on ecDNA (FISH probe and PCR analysis of purified exosomes); conditions: exosomes purified from treated GBM39 cells

SMILES | 3D soft agar colonies [1] | 3D soft agar colonies [2] | 2D colony formation (colony number) (PC3 cells) | glucose levels in GBM cells (GBM cells [3]) | replication stress on ecDNA (frequency of pRPA(533) positive metaphase) (ecDNA) | loss of ecDNA containing amplified EGFRvIII (number of ecDNAs per metaphase) (GBM cells [4]) | cellular level of oncogenes amplified on ecDNA, via exosomal export (GBM39 cells)
O=C(c1cc(Cc2n[nH]c(=O)c3ccccc23)ccc1F)N1CCN(C(=O)C2CC2)CC1 [Olaparib, olaparib] | sensitive to PARP inhibition | sensitive to PARP inhibition | sensitive to PARP inhibition | – | – | – | –
CNCc1ccc(-c2[nH]c3cc(F)cc4c3c2CCNC4=O)cc1 [Rucaparib, rucaparib] | sensitive to PARP inhibition | sensitive to PARP inhibition | sensitive to PARP inhibition | – | – | – | –
C#Cc1cccc(Nc2ncnc3cc(OCCOC)c(OCCOC)cc23)c1 [erlotinib] | – | – | – | lowers glucose levels in GBM cells | specifically causes replication stress on ecDNA, but not on chromosomal DNA | causes the loss of ecDNA containing amplified EGFRvIII | reduction of cellular level of oncogenes amplified on ecDNA
